{"source": "patent US11964976B1", "about": "“Substituted pyrido[3′,4′:4,5]pyrrolo[3,2-c][1,6]naphthyridines as CK2 inhibitors” (KING FAISAL UNIVERSITY, priority 2023, dated 2024)", "key": {"PC3 (prostate)": {"test_system": "PC3 (prostate)", "assay": "In vitro cytotoxic activity (MTT) assay, PC3", "assay_type": "cell-based", "details": "Homo sapiens, Prostate cell; PC3 (prostate) cells, exposed for 96 hours; read-out: IC50, concentration eliciting 50% inhibition of cell proliferation", "procedure": "(§1) Compounds 1-15 were screened for their in vitro cytotoxic activity utilizing a 3-(4,5-dimethyl-thiazol-2-yl)-2,5-diphenyltetrazolium bromide (MTT) assay against selected cancer human cell lines consisting of PC3 (prostate), HCT116 (colon), A375 (melanoma), H1299 (lung), MIAPaCa-2 (pancreas), HL60 (leukemia), MCF7 (breast), MDA-MB-231 (breast) (T. Mosmann, J. Immunol. Meth., 1983, 65, 55-63). The cells were cultured at 37° C. in RMPI1640 medium supplemented with 10% fetal bovine serum, 50 IU/mL penicillin, and 50 μg/mL streptomycin in a 5% CO2 incubator. All cells were sub-cultured 3 times/week by trypsinisation. Viable cells were seeded and allowed to adhere for 12 h before a test drug was added in 96-well plates at an initial density of 1.0×10^5 cells/mL. Tumor cell lines were separately exposed to various concentrations of the tested compounds followed by incubation at a temperature of 37° C. during 96 hours inside a medium of fresh RMPI 1640. Cells were subsequently incubated at 37° C. using MTT at 0.5 mg/mL during 4 hours. After removal of supernatant, formazan crystals were dissolved in isopropanol and the optical density was measured at 570 nm. CX-4945 was used as a positive control."}, "HCT116 (colon)": {"test_system": "HCT116 (colon)", "assay": "In vitro cytotoxic activity (MTT) assay, HCT116", "assay_type": "cell-based", "details": "Homo sapiens, HCT-116; HCT116 (colon) cells, exposed for 96 hours; read-out: IC50, concentration eliciting 50% inhibition of cell proliferation", "procedure": "as §1"}, "A375 (melanoma)": {"test_system": "A375 (melanoma)", "assay": "In vitro cytotoxic activity (MTT) assay, A375", "assay_type": "cell-based", "details": "Homo sapiens, A-375; A375 (melanoma) cells, exposed for 96 hours; read-out: IC50, concentration eliciting 50% inhibition of cell proliferation", "procedure": "as §1"}, "H1299 (lung)": {"test_system": "H1299 (lung)", "assay": "In vitro cytotoxic activity (MTT) assay, H1299", "assay_type": "cell-based", "details": "Homo sapiens, NCI-H1299; H1299 (lung) cells, exposed for 96 hours; read-out: IC50, concentration eliciting 50% inhibition of cell proliferation", "procedure": "as §1"}, "MIAPaCa-2 (pancreas)": {"test_system": "MIAPaCa-2 (pancreas)", "assay": "In vitro cytotoxic activity (MTT) assay, MIAPaCa-2", "assay_type": "cell-based", "details": "Homo sapiens, MIA PaCa-2; MIAPaCa-2 (pancreas) cells, exposed for 96 hours; read-out: IC50, concentration eliciting 50% inhibition of cell proliferation", "procedure": "as §1"}, "HL60 (leukemia)": {"test_system": "HL60 (leukemia)", "assay": "In vitro cytotoxic activity (MTT) assay, HL60", "assay_type": "cell-based", "details": "Homo sapiens, HL-60; HL60 (leukemia) cells, exposed for 96 hours; read-out: IC50, concentration eliciting 50% inhibition of cell proliferation", "procedure": "as §1"}, "MCF7 (breast)": {"test_system": "MCF7 (breast)", "assay": "In vitro cytotoxic activity (MTT) assay, MCF7", "assay_type": "cell-based", "details": "Homo sapiens; MCF7 (breast) cells, exposed for 96 hours; read-out: IC50, concentration eliciting 50% inhibition of cell proliferation", "procedure": "as §1"}, "MDA-MB-231 (breast)": {"test_system": "MDA-MB-231 (breast)", "assay": "In vitro cytotoxic activity (MTT) assay, MDA-MB-231", "assay_type": "cell-based", "details": "Homo sapiens; MDA-MB-231 (breast) cells, exposed for 96 hours; read-out: IC50, concentration eliciting 50% inhibition of cell proliferation", "procedure": "as §1"}, "[1]": {"target": "T1, recombinant human CK2 (RRββ-holoenzyme) (Homo sapiens, UniProt P68400)", "T1 construct": "purchased Millipore", "T1 sequence (P68400 whole entry)": "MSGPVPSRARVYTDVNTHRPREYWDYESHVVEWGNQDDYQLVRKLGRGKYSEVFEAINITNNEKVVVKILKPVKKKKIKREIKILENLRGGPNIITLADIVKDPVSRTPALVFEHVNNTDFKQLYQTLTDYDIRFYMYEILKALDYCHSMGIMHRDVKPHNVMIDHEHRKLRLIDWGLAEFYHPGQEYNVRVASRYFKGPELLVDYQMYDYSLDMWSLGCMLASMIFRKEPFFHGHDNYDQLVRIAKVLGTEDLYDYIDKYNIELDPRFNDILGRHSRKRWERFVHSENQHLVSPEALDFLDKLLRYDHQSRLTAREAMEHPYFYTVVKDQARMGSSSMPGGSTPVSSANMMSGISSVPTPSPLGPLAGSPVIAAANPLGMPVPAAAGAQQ", "T1 sequence (P67870 whole entry partner)": "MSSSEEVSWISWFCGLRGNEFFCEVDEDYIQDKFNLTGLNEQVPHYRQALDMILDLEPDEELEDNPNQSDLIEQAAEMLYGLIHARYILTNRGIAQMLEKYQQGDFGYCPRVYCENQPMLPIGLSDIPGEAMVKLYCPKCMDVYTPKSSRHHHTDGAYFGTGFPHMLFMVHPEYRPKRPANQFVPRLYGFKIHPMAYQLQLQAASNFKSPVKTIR", "assay": "CK2 Kinase Assay (33P-ATP, filter plate)", "assay_type": "biochemical", "details": "final ATP concentration 15 μM, 10 min at 30° C.; read-out: protein kinase CK2 IC50", "procedure": "CK2 Kinase Assay was conducted using the protocol as described in Pierre F. et al; J. Med. Chem. 2011, 54, 635-654. The tested compounds in aqueous solution were added at a volume of 10 μL to a reaction mixture comprising 10 μL of assay dilution buffer (ADB; 20 mM MOPS, pH 7.2, 25 mM β-glycerol phosphate, 5 mM EGTA, 1 mM sodium orthovanadate, and 1 mM dithiothreitol), 10 μL of substrate peptide (RRRDDDSDDD, dissolved in ADB at a concentration of 1 mM), 10 μL of recombinant human CK2 (RRββ-holoenzyme, 25 ng dissolved in ADB; Millipore). Reactions were initiated by the addition of 10 μL of ATP solution (90% 75 mMMgCl2, 75 μM ATP (final ATP concentration: 15 μM) dissolved in ADB; 10% [γ-33P] ATP (stock 1mCi/100 μL; 3000 Ci/mmol (Perkin-Elmer) and maintained for 10 min at 30° C. The reactions were quenched with 100 μL of 0.75% phosphoric acid and then transferred to and filtered through a phosphor cellulose filter plate (Millipore). After washing each well five times with 0.75% phosphoric acid, the plate was dried under vacuum for 5 min and, following the addition of 15 μL of scintillation fluid to each well, the residual radioactivity was measured using a Wallac luminescence counter. The IC50 values were derived from eight concentrations of test inhibitors."}}, "data": [{"smiles": "Clc1cccc(Nc2nc3ccncc3c3[nH]c4ccncc4c23)c1", "note": "[Compound 1, N-(3-chlorophenyl)-11H-pyrido[3′,4′:4,5]pyrrolo[3,2-c][1,6]naphthyridin-6-amine]", "values": [{"measurement": "IC50", "setting": "PC3 (prostate)", "result": 1, "unit": "µM"}, {"measurement": "IC50", "setting": "HCT116 (colon)", "result": 1.3, "unit": "µM"}, {"measurement": "IC50", "setting": "A375 (melanoma)", "result": 4.4, "unit": "µM"}, {"measurement": "IC50", "setting": "H1299 (lung)", "result": 1.2, "unit": "µM"}, {"measurement": "IC50", "setting": "MIAPaCa-2 (pancreas)", "result": 1.1, "unit": "µM"}, {"measurement": "IC50", "setting": "HL60 (leukemia)", "result": 3.5, "unit": "µM"}, {"measurement": "IC50", "setting": "MCF7 (breast)", "result": 3.1, "unit": "µM"}, {"measurement": "IC50", "setting": "MDA-MB-231 (breast)", "result": 2.6, "unit": "µM"}, {"measurement": "IC50", "setting": "[1]", "result": 0.029, "unit": "µM"}]}]}
